Data as given in paper PMC7159882, “Polyunsaturated fatty acid analogues differentially affect cardiac NaV, CaV, and KV channels through unique mechanisms” (eLife, 2020).
Several values for one entry are separate records, joined by “and”; a condition that tells them apart may be missing. Equal entries are not always repeated.

Tests used:
[1] = molecular target: T1, Cav1.2/β3/α2δ (Homo sapiens, UniProt Q13936); assay: Two-electrode voltage clamp of Cav1.2/β3/α2δ expressed in Xenopus oocytes (Ba2+ as charge carrier); type: cell-based; settings: for ICa I/I0: relative current at 0 mV
T1 construct: expressed in transfected cells; host or cells: Xenopus laevis oocytes (cRNA injection, Cav1.2:β3:α2δ 2:1:1 by weight)
Protocol: (§1) Molecular Biology cRNA encoding Kv7.1 (UniProt: P51787), KCNE1 (UniProt: P15382.1), Nav1.5 (UniProt: Q14524.1), Nav β1 (UniProt: […]), Nav β3 (UniProt: […]), Cav1.2 (GenBank: CAA84346), Cav β3 (Uniprot: P54286), Cav β2 (Uniprot: P54288), and Cav α2δ (Uniprot: P13806) were transcribed using the mMessage mMachine T7 kit (Ambion). 50 ng of cRNA was injected into defolliculated Xenopus laevis oocytes (Ecocyte, Austin, TX): For Kv7.1/KCNE1 channel expression, we injected a 3:1, weight:weight (Kv7.1:KCNE1) cRNA ratio. For Nav1.5 channel expression, we injected a 2:1, weight:weight (Nav1.5:β1) cRNA ratio. For Cav1.2 channel expression, we injected a 2:1:1, weight:weight (Cav1.2:β3:α2δ) cRNA ratio. The exact stoichiometry for channel macromolecular complexes, including α -subunits and auxiliary subunits is not clear for many ion channels. For example, there have been multiple reported stoichiometries for Kv7.1:KCNE1 determined in heterologous expression systems with some groups reporting flexible stoichiometry of 4 Kv7.1: 1–4 KCNE1 and others reporting a fixed stoichiometry of 4 Kv7.1: 2 KCNE1 ([Murray et al., 2016]; [Nakajo et al., 2010]). The ratios of cRNA of α- and auxiliary subunits that we injected in Xenopus laevis oocytes are such that all α-subunits are assumed to be in complex with auxiliary subunits. This allows a more homogenous population of ion channels with auxiliary subunits. One caveat to expressing ion channels as macromolecular complexes is that there are many other auxiliary subunits that could associate with the channel α -subunit that are present in cardiomyocytes and have the potential to alter PUFA-induced effects, but that are not being co-expressed in our experiments. In this work, we are co-expressing some of the auxiliary subunits that have been primarily reported to associate with their respective α -subunits in cardiomyocytes. Following cRNA injection, cells were incubated for 72–96 hr in standard ND96 solution (96 mM NaCl, 2 mM KCl, 1 mM MgCl2, 1.8 mM CaCl2, 5 mM HEPES; pH = 7.5) containing 1 mM pyruvate at 16°C prior to electrophysiological recordings.
(§2) Xenopus laevis oocytes were recorded in the two-electrode voltage clamp (TEVC) configuration. Recording pipettes were filled with 3 M KCl. The recording chamber was filled with ND96 (96 mM NaCl, 2 mM KCl, 1 mM MgCl2, 1.8 mM CaCl2, 5 mM HEPES; pH 7.5). For Cav1.2/β3/α2δ channel recordings, Xenopus oocytes were injected with 50 nl of 100 mM EGTA and incubated at 10°C for 30 min prior to electrophysiological recordings in order to sequester cytosolic calcium. In addition, Cav1.2/β3/α2δ channel recordings were done in Ca^2+-free solutions, using Ba^2+ as the charge carrier, to prevent calcium-dependent inactivation of Cav1.2/β3/α2δ channels. Calcium-dependent inactivation was not studied in this work, due to the presence of large calcium-activated chloride currents present in Xenopus laevis oocytes. PUFAs were obtained from Cayman Chemical (Ann Arbor, MI.) or synthesized in house (Linköping, Sweden) through methods previously described ([Bohannon et al., 2020]) and kept at −20 °C as 100 mM stock solutions in ethanol. Serial dilutions of the different PUFAs were prepared from stocks to make 0.2 μM, 0.7 μM, 2 μM, 7 μM, and 20 μM concentrations in ND96 solutions (pH = 7.5). PUFAs were perfused into the recording chamber using the Rainin Dynamax Peristaltic Pump (Model RP-1) (Rainin Instrument Co., Oakland, CA. USA).
(§3) Electrophysiological recordings were obtained using Clampex 10.3 software (Axon, pClamp, Molecular Devices). To measure Kv7.1/KCNE1 currents we apply PUFAs as the membrane potential is stepped every 30 s from −80 mV to 0 mV for 5 s before stepping to −40 mV and back to −80 mV to ensure that the PUFA effects on the current at 0 mV reached steady state. A voltage-step protocol was used to measure the current vs. voltage (I-V) relationship before PUFA application and after the PUFA effects had reached steady state for each concentration of PUFA. […]

[2] = molecular target: T2, Nav1.5/β1 (Homo sapiens, UniProt Q14524); assay: Two-electrode voltage clamp of Nav1.5/β1 expressed in Xenopus oocytes; type: cell-based; settings: for INa I/I0: relative current at 0 mV
T2 construct: Nav1.5 (UniProt: Q14524.1); expressed in transfected cells; host or cells: Xenopus laevis oocytes (cRNA injection, Nav1.5:β1 2:1 by weight)
Protocol: as §1, §2, §3

[3] = test system: Herg channels; set-up: method as in B.H. Bentzen and H. Duff, unpublished data; settings: up to 10 μM; heterologous systems; ref B.H. Bentzen and H. Duff, unpublished data; cited from earlier work

T2 sequence (Q14524 whole entry): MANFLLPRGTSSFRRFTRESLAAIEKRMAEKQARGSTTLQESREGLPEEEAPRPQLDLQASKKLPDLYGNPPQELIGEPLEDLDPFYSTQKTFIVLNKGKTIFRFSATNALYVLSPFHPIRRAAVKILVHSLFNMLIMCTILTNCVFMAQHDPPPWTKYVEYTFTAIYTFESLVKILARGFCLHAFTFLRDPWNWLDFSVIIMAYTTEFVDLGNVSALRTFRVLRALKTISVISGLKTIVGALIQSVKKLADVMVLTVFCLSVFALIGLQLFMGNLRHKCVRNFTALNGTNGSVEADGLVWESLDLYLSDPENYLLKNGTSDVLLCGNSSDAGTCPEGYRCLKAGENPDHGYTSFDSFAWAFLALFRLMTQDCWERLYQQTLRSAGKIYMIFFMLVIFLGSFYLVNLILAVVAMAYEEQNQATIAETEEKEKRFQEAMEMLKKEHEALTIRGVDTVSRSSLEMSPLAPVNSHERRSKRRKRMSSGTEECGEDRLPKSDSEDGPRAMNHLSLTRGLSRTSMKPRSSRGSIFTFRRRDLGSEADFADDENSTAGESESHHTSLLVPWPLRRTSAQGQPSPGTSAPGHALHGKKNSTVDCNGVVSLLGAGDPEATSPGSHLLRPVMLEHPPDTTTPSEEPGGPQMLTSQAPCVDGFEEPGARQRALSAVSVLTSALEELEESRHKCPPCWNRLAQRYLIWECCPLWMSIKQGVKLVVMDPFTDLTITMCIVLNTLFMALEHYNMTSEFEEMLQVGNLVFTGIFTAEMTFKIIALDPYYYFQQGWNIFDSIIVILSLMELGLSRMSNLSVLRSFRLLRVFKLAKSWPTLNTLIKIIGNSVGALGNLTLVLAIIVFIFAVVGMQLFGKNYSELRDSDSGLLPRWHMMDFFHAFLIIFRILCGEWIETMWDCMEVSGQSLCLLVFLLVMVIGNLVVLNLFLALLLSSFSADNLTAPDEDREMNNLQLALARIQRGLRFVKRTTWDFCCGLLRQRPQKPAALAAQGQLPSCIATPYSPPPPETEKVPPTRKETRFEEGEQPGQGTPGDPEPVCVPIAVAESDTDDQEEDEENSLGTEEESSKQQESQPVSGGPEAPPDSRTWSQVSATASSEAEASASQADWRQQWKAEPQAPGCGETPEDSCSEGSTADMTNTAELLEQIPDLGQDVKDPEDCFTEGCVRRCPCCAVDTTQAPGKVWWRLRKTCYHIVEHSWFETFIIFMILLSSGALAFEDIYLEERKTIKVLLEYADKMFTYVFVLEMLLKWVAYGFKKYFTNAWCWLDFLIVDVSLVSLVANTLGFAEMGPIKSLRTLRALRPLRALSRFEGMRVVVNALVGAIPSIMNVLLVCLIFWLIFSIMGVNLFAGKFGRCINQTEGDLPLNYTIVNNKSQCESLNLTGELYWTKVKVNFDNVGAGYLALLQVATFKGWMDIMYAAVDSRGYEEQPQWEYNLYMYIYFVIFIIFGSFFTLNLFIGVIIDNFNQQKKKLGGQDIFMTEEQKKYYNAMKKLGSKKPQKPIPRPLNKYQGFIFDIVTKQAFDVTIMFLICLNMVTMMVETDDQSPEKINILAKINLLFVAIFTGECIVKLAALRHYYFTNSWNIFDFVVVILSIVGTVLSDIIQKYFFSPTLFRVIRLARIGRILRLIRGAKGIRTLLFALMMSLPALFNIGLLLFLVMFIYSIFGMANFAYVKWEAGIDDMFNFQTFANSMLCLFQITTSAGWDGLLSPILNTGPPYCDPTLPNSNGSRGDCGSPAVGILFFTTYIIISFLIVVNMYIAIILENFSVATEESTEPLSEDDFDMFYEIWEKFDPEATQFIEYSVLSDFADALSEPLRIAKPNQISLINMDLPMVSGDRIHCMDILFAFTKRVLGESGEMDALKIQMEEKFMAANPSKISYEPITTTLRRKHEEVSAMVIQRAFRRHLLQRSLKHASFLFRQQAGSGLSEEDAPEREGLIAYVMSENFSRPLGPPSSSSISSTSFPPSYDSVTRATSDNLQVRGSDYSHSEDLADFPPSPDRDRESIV
T2 sequence (Q07699 19-218 partner): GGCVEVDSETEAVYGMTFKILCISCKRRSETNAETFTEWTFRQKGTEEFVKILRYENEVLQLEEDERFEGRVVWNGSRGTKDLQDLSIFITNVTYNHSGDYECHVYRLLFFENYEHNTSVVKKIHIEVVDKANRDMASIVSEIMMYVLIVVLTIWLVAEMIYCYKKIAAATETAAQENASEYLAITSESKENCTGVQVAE

Compound | Gmax/Gmax0 ([1]; 0.2 μM) | ΔV0.5 (voltage dependence of inactivation) ([1]; 0.2 μM) [mV] | ICa I/I0 ([1]; 0.2 μM) | Gmax/Gmax0 ([1]; 0.7 μM) | ΔV0.5 (voltage dependence of inactivation) ([1]; 0.7 μM) [mV] | ICa I/I0 ([1]; 0.7 μM) | Gmax/Gmax0 ([1]; 2 μM) | ΔV0.5 (voltage dependence of inactivation) ([1]; 2 μM) [mV] | ICa I/I0 ([1]; 2 μM) | Gmax/Gmax0 ([1]; 7 μM) | ΔV0.5 (voltage dependence of inactivation) ([1]; 7 μM) [mV] | Gmax/Gmax0 ([1]; 20 μM) | ΔV0.5 (voltage dependence of inactivation) ([1]; 20 μM) [mV] | ICa I/I0 ([1]; 20 μM) | Gmax/Gmax0 ([2]; 0.2 μM) | ΔV0.5 (voltage dependence of inactivation) ([2]; 0.2 μM) [mV] | INa I/I0 ([2]; 0.2 μM) | Gmax/Gmax0 ([2]; 0.7 μM) | ΔV0.5 (voltage dependence of inactivation) ([2]; 0.7 μM) [mV] | INa I/I0 ([2]; 0.7 μM) | further results
CC/C=C\C/C=C\C/C=C\C/C=C\C/C=C\C/C=C\CCC(=O)NCC(=O)O [DHA-glycine, docosahexaenoyl glycine] | 1.0 ± 0.1 | 6.1 ± 3.5 | 0.9 ± 0.1 | 1.1 ± 0.1 | 6.4 ± 4.3 | 1.0 ± 0.1 | 1.1 ± 0.1 | 6.1 ± 4.2 | 0.9 ± 0.1 | 1.0 ± 0.1 | 7.6 ± 3.1 | 1.0 ± 0.1 | 5.2 ± 4.4 | 0.9 ± 0.1 | 1.0 ± 0.02 | 0.3 ± 0.1 | 1.0 ± 0.02 | 1.0 ± 0.03 | -0.2 ± 0.6 | 1.0 ± 0.04 | Gmax/Gmax0 ([2]; 2 μM): 1.0 ± 0.04; ΔV0.5 (voltage dependence of inactivation) ([2]; 2 μM): -0.3 ± 0.5 mV; INa I/I0 ([2]; 2 μM): 1.1 ± 0.05; Gmax/Gmax0 ([2]; 7 μM): 1.0 ± 0.04; ΔV0.5 (voltage dependence of inactivation) ([2]; 7 μM): −2.4 ± 0.6 mV and -2.4 ± 0.7 mV; Gmax/Gmax0 ([2]; 20 μM): 0.5 ± 0.1; ΔV0.5 (voltage dependence of inactivation) ([2]; 20 μM): -11.5 ± 1.7 mV; INa I/I0 ([2]; 20 μM): 0.7 ± 0.1; effects on currents through Herg channels [3]: neither N-AT nor DHA-glycine up to 10 μM had any significant effects
CCCCC/C=C\C/C=C\C/C=C\C/C=C\CCCC(=O)NCCS(=O)(=O)O [N-AT, N-arachidonoyl taurine] | 0.9 ± 0.02 | 0.4 ± 0.3 | 0.9 ± 0.1 | 0.9 ± 0.1 | 0.5 ± 1.0 | 0.9 ± 0.1 | 0.8 ± 0.03 | 0.2 ± 2.2 | 0.9 ± 0.1 | 0.7 ± 0.1 | 0.6 ± 2.0 | 0.6 ± 0.03 | 1.4 ± 1.7 | 0.7 ± 0.1 | 1.0 ± 0.04 | -0.2 ± 0.5 | 1.0 ± 0.09 | 1.0 ± 0.06 | 0.2 ± 1.4 | 1.0 ± 0.07 | Gmax/Gmax0 ([2]; 2 μM): 0.7 ± 0.03; ΔV0.5 (voltage dependence of inactivation) ([2]; 2 μM): -5.2 ± 0.4 mV; INa I/I0 ([2]; 2 μM): 0.7 ± 0.08; Gmax/Gmax0 ([2]; 7 μM): 0.3 ± 0.04; ΔV0.5 (voltage dependence of inactivation) ([2]; 7 μM): –16.7 ± 3.5 mV; Gmax/Gmax0 ([2]; 20 μM): 0.07 ± 0.01; ΔV0.5 (voltage dependence of inactivation) ([2]; 20 μM): -27.5 ± 2.9 mV; INa I/I0 ([2]; 20 μM): 0.1 ± 0.02; effects on currents through Herg channels [3]: neither N-AT nor DHA-glycine up to 10 μM had any significant effects
